This is an account of results in patent US20060104978A1, “Methods and compositions for PDGF-C activation and inhibition” (LUDWIG INSTITUTE FOR CANCER RESEARCH, priority 2003, published 2006).

Assay [1] relates to tPA. Briefly: Ni-NTA pull-down of purified tPA by His6-tagged recombinant proteins. Particulars: Ni-NTA beads coated with His6-tagged protein, 1 μg purified tPA, 2 hours room temperature, eluted with imidazole. In kind it is binding, human. As for the experimental part:
The possibility of a direct protein-protein interaction between tPA and latent PDGF-CC was explored by developing a pull-down assay. Ni-NTA beads were allowed to bind recombinant His6-tagged latent PDGF-CC or PDGF-DD, and purified tPA was added and incubated. Following extensive washings, bound proteins were subsequently eluted with an imidazole-containing buffer, and the eluates were analyzed by immunoblotting using specific antibodies.
To determine a direct protein-protein interaction between tPA and PDGF-CC, His6-tagged recombinant protein species were bound to Ni-NTA-agarose (Qiagen) and then incubated with 1 μg of purified tPA for 2 hours at room temperature. Uncoated and PDGF-DD coated Ni-NTA beads were used as controls. The beads were washed thoroughly, and His6-tagged proteins were specifically eluted with 400 mM imidazole. Eluted proteins were analyzed by SDS-PAGE under reducing conditions and immunoblotted with antibodies against human tPA (see above). The membranes were subsequently stripped and reprobed with specific antibodies.
Target sequence in this assay (P00750 36-562): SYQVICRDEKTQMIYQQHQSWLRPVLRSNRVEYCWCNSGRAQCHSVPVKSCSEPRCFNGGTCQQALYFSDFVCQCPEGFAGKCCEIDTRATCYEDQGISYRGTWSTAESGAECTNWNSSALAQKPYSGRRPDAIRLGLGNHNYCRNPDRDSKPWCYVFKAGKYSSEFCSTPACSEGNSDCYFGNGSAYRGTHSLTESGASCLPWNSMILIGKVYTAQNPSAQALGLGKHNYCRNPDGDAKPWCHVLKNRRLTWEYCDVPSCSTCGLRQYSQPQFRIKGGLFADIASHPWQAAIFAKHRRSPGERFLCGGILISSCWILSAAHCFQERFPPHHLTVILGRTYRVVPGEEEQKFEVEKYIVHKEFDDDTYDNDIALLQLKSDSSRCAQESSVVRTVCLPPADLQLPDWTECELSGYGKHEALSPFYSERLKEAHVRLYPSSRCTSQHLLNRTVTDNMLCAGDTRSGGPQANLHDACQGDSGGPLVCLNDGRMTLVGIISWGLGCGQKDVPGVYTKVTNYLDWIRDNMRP

For assay [2], the system named is secreted protease(s) present in the conditioned media from AG1523 cells. Briefly: In vitro cleavage of recombinant latent PDGF-CC by AG1523 conditioned medium, protease inhibitor profile. The conditions noted are these: inhibitor preincubated 30 min with AG1523 medium, then recombinant PDGF-CC 37° C. overnight; AEBSF 1 mM, leupeptin 100 μM, aprotinin 100 μM; immunoblot. It counts as biochemical, human. How it is done: In an in vitro assay, the properties of the enzyme(s) involved in cleavage and activation of PDGF-CC were studied by mixing serum-free conditioned media from AG1523 cells with His6-tagged recombinant full-length PDGF-CC.
The class of enzyme(s) responsible for cleavage and activation of latent PDGF-CC was established by generating an enzyme inhibitor profile of the enzymatic activity (FIG. 1E). Eight different protease inhibitors (see FIG. 1F) were separately preincubated with conditioned media from AG1523 cells, and then incubated with His6-tagged recombinant full-length PDGF-CC.
(§1) All protease inhibitors were purchased from Sigma and the concentrations used were as follows: AEBSF 1 mM, bestatin 100 μM, leupeptin 100 μM, pepstatin A 10 μM, E64 100 μM, aprotinin 100 μM (˜3 TIU), EDTA 50 mM, and phosphoramidon 100 μM. The protease inhibitors were preincubated with conditioned AG1523 medium at room temperature for 30 min, and then incubated with recombinant PDGF-CC (ratio 10:2) at 37° C. overnight. Recombinant PDGF-CC species were analyzed by immunoblotting as above. To determine whether tPA is the major proteolytic enzyme responsible for the PDGF-CC processing in AG1523 conditioned medium, AG1523 cells were cultured in serum-free medium, with or without the addition of a synthetic tPA inhibitor tPA-STOP™ (3.5-35 μM, #544, American Diagnostica Inc.) or 100 μM aprotinin as a positive control. The conditioned serum-free medium was collected, and proteins were precipitated before SDS-PAGE and immunoblotting using antibodies against PDGF-C (see above).
On the technique in general: Immunoblotting shows a protein as a band on a membrane.

The test system of assay [3] is tPA. Briefly: Processing of endogenous PDGF-CC by growing AG1523 cells with tPA inhibitors in serum-free medium. In kind it is cell-based, human. The conditions noted are these: tPA-STOP 3.5-35 μM, aprotinin 100 μM in serum-free medium of AG1523 cells; immunoblot. As for the experimental part: as §1

For the compound “PDGF-DD: recombinant His6-tagged latent full-length PDGF-DD”, in the assay with tPA [1], the “binding of tPA in pull-down” value is “failed to do so”.
For the compound `CC(=O)N[C@@H](CC(C)C)C(=O)N[C@@H](CC(C)C)C(=O)N[C@H](C=O)CCCNC(=N)N` [leupeptin], the “inhibition of proteolytic cleavage of latent PDGF-CC” value in assay [2] was “inhibited the proteolytic cleavage of latent PDGF-CC”.
Same read-out and setting: next, `NCCc1ccc(S(=O)(=O)F)cc1` [AEBSF]: “inhibited the proteolytic cleavage of latent PDGF-CC”.
As for aprotinin, the “inhibition of proteolytic cleavage of latent PDGF-CC” value in assay [2] is listed as “inhibited the proteolytic cleavage of latent PDGF-CC”. In the assay with tPA [3], the “inhibition of processing of endogenous full-length PDGF-CC” value was “efficiently inhibited processing of latent PDGF-CC”.
In the case of `Cl.Cl.N=C(N)c1ccc(C=C2CCCCC(=Cc3ccc(C(=N)N)cc3)C2=O)cc1` [tPA-STOP™], in the assay with tPA [3], the “inhibition of processing of endogenous full-length PDGF-CC” value is reported as “in a dose-dependent way, prevented processing of full-length PDGF-CC”.
